From PubChem BioAssay (NCI)
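Cells were grown in 96-well plates and exposed to each compound for 48 hours at five concentrations; endpoints were interpolated linearly between bracketing concentrations, or set to the highest concentration if not reached. TGI denotes the concentration required for complete inhibition of growth.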

Columns and labels:
Assay in all cases: growth of human tumour cells (NCI), 48 h
NCI-H226 lung = tested on: NCI-H226 lung
SF-268 CNS = tested on: SF-268 CNS
HCT-15 colon = tested on: HCT-15 colon
IGROV1 ovarian = tested on: IGROV1 ovarian
BT-549 breast = tested on: BT-549 breast
MALME-3M melanoma = tested on: MALME-3M melanoma
OVCAR-5 ovarian = tested on: OVCAR-5 ovarian
SNB-75 CNS = tested on: SNB-75 CNS
HOP-62 NSCLC = tested on: HOP-62 NSCLC
SW-620 colon = tested on: SW-620 colon
786-0 renal = tested on: 786-0 renal
U251 CNS = tested on: U251 CNS
NCI-H522 lung = tested on: NCI-H522 lung
HS 578T breast = tested on: HS 578T breast
HL-60(TB) leukemia = tested on: HL-60(TB) leukemia
ACHN renal = tested on: ACHN renal
TK-10 renal = tested on: TK-10 renal
CCRF-CEM leukemia = tested on: CCRF-CEM leukemia
UACC-257 melanoma = tested on: UACC-257 melanoma
NCI-H460 lung = tested on: NCI-H460 lung
UO-31 renal = tested on: UO-31 renal
MOLT-4 leukemia = tested on: MOLT-4 leukemia
COLO 205 colon = tested on: COLO 205 colon
M14 melanoma = tested on: M14 melanoma
NCI-H23 lung = tested on: NCI-H23 lung
A549 NSCLC = tested on: A549 NSCLC
MDA-N = tested on: MDA-N
SK-MEL-2 melanoma = tested on: SK-MEL-2 melanoma
SK-MEL-5 melanoma = tested on: SK-MEL-5 melanoma
T-47D breast = tested on: T-47D breast
MCF7 breast = tested on: MCF7 breast
PC-3 prostate = tested on: PC-3 prostate
DU-145 prostate = tested on: DU-145 prostate
HCT-116 colon = tested on: HCT-116 colon
SF-295 CNS = tested on: SF-295 CNS
OVCAR-8 ovarian = tested on: OVCAR-8 ovarian
LOX IMVI melanoma = tested on: LOX IMVI melanoma
UACC-62 melanoma = tested on: UACC-62 melanoma
KM12 colon = tested on: KM12 colon
HCC-2998 colon = tested on: HCC-2998 colon
NCI/ADR-RES ovarian = tested on: NCI/ADR-RES ovarian
MDA-MB-231 breast = tested on: MDA-MB-231 breast
SNB-19 CNS = tested on: SNB-19 CNS
A498 renal = tested on: A498 renal
SK-OV-3 ovarian = tested on: SK-OV-3 ovarian
MDA-MB-435 = tested on: MDA-MB-435
SN12C renal = tested on: SN12C renal
RPMI-8226 leukemia = tested on: RPMI-8226 leukemia
SF-539 CNS = tested on: SF-539 CNS
K-562 leukemia = tested on: K-562 leukemia
OVCAR-3 ovarian = tested on: OVCAR-3 ovarian
HT29 colon = tested on: HT29 colon
CAKI-1 renal = tested on: CAKI-1 renal
EKVX NSCLC = tested on: EKVX NSCLC
SK-MEL-28 melanoma = tested on: SK-MEL-28 melanoma

Measured: TGI

CCCCCCCCCCCC(=O)c1c(O)cc(C)oc1=O
68.6 µM: SK-MEL-5 melanoma
93.3 µM: SF-539 CNS
> 100 µM: all other assays above
